These results are taken from patent publication US4442093A, “Method for administering 24,25-dihydroxycholecalciferol to persons suffering from hypercalcemia” (Kureha Kagaku Kogyo Kabushiki Kaisha, priority 1981, dated 1984).

Assay [1] deals with lymphocytes from a healthy person. The experiment in a line: Effect of plasma of treated renal failure/uremia patients on blastoid-transformation of lymphocytes from a healthy person (Example 14). Type of assay: cell-based, human. Conditions: 0.5 to 1.0 µg/day oral, 1 to 6 months. An excerpt: Effects of plasma derived from a patient suffering from chronic renal failure or uremia treated with the present compound or not treated therewith on blastoid-transformation of lymphocytes from a healthy person Heparinized fresh peripheral blood of a normal person was mixed with Ficoll-Paque solution, and after subjecting the mixture to ultracentrifugal separation, the layer of lymphocyte was collected, and after washing the layer three times with phosphate buffer solution, the washed lymphocytes were dispersed in suspension in RPMI-1640 culture medium (liquid) at a concentration of 6×10^5 cells/ml. […] Then, the specimen was harvested to determine the uptake of ^3 H-TdR by the lymphocytes. In addition, the plasma of each patient was collected two times, namely, once before hemodialysis and once after hemodialysis, and accordingly the total patient system of the present test consists of two large groups one of which is administered and the other of which is not administered with the compound, and each large group consists of two groups one of which is not yet hemodialysed and the other of which has been already hemodialysed.

For assay [2], the system named is calcium level in serum. The experiment in a line: Serum calcium in normal fasted rats (Example 2). Type of assay: in vivo, male Wistar-rats. Here is the method: Four subgroups of male Wistar-rats (a subgroup consisting of 5 animals) were used as the test animals, and they were fasted one whole day before the test.
To the rats of the first group consisting of 2 subgroups, a solution of 24R,25-(OH)2 -D3 in the triglyceride ester used in Example 1 was orally administered once at a dose rate of 100 micrograms of the agent/kg body weight.
To the rats of the second group consisting of 2 subgroups, only the triglyceride used in Example 1 was administered orally, and while using them as control, the calcium level in their serum was determined as in the first group.

Assay [3] has as its system thymus. Kind of assay: Weight ratio of thymus to body and number of thymocytes in rats given puromycin aminonucleoside (Example 11). Type of assay: in vivo, male JCL-Wistar rats. Particulars: 100 µg/kg/day oral 12 days with puromycin aminonucleoside 15 mg/kg s.c. How it is done:
Thirty-two male JCL-Wistar rats in tenth week after birth were used in the present test while keeping them in a room at 21±1° C. and 60±5% RH with solid diet (CE 2) and water taken ad lib.
They were divided equally into 4 groups (one group consisting of 8 animals), their treatments in the test being as follows:
subcutaneous injection of puromycin aminonucleoside as in the second group and oral administration of 24R,25-(OH)2 -D3 dissolved in Panacete 810 once a day at a daily dose rate of 100 micrograms/kg for continuous 12 days.
subcutaneous injection of puromycin aminonucleoside as in the second group and oral administration of 24S,25-(OH)2 -D3 dissolved in Panacete 810 once a day at a daily dose rate of 100 micrograms/kg for continuous 12 days.
After uniformly loosing the thymus in phosphate buffer solution with a forcets and fully pipetting, the mixture was filtered through a stainless steel mesh (Tylar standard #200) and the filtrate containing the thymic cells was stained with Turk's solution. The thus stained specimen was subjected to counting under a microscope.

Assay [4] concerns calcium level in serum. The experiment in a line: Serum calcium in hemodialysis patient hypercalcemic due to active Vitamin D3 (Example 7). Type of assay: in vivo, human. Conditions: person six; baseline. Here is the method: person six who was subjected to hemodialysis on account of renal failure and became hypercalcemia due to the four month administration of active Vitamin D3 at a daily dose of 0.5 to 1.0 microgram was treated by the oral administration of the capsule composition similar to that prepared in Example 6 for three continuous days at a daily dose of 10 micrograms of 24R,25-(OH)2 -D3.

The test system of assay [5] is blood sugar. The experiment in a line: Blood sugar in streptozotocin rats (Example 22). Conditions: 10 µg/kg/day p.o., 4 weeks, streptozotocin i.p. Type of assay: in vivo, male Wistar rats. Here is the method:
Among the male Wistar rats in 6th week after birth to which 60 mg of streptozotocin/kg body weight was intraperitoneally administered, those in which positive urine sugar was confirmed after one week of the administration, reduction of both urine sugar and blood sugar was shown by the administration of regular insulin and a state of hyper urine sugar and hyper blood sugar was confirmed after a few days of the administration of regular insulin. The confirmed rats were used as the model animals of glycosuria in the following tests. As control, the male Wistar rats intraperitoneally administered with aqueous physiological saline solution instead of streptozotocin were used. These rats were fed with an ordinary solid diet (CE-2, prepared by Nippon Crea Co., Ltd.)
The model animals were divided into two groups each consisting of 12 animals, and to the rats of the first group (according to the present invention), 24R,25-(OH)2 -D3 was forcibly administered p.o. in a state of solution in MCT (triglyceride of C8 and C10 -fatty acid) containing 0.2% by weight of ethanol once a day, 5 to 6 times a week for continuous 4 weeks at a daily dose rate of 10 micrograms/kg body weight. To the rats of the second group, only the same amount of MCT containing 0.2% by weight of ethanol as above was forcibly p.o. administered in the same manner as in the first group. […]

The subject of assay [6] is mononucleates (lymphocytes) of peripheral blood. The experiment in a line: Blastoid-transformation of rat lymphocytes in peripheral blood, 3H-TdR uptake (Example 13). Type of assay: in vivo. Here is the method: The effect of the present compound on the blastoid-transformation of rat lymphocytes in the peripheral blood was examined as follows: After mixing each of the blood specimens taken from the respective rats of the four groups in Example 11 added with heparin and RPMI-1640 culture medium at a weight ratio of 1:1, the mixture was added to Ficoll-Paque solution, and the thus obtained mixture was subjected to centrifugal separation at 400 G for 20 min to collect the layer of mononucleates. After washing the thus collected mononucleates three times with PRMI-1640 culture medium (in a liquid state), the washed mononucleates were suspended into RPMI-1640 culture medium added with 10% by weight of calf serum to be in concentration of 1.5×10^6 cells/ml. Hundred microliters of the thus prepared suspension was placed in the pit of Pharcon microtest II plate, and after adding a substance promoting cell division (hereinafter referred to as mitogen) and RPMI-1640 culture medium added with 10% by weight of calf serum to the thus placed suspension to make the total volume 200 microliters, the thus prepared mixture was incubated for 72 hours under a gas (a 95:5 by volume mixture of air and carbon dioxide saturated with moisture) flow at 37° C. ^3 H-methylthymidine of specific activity of 5 Ci/mmol was added to the mixture during incubation at the time 24 hours before the incubation was over in an amount corresponding to 0.5 micro Ci. After the incubation was over, the cells in the culture were collected by filtering the cultured mixture, and the amount of radioactive isotope uptaken into the cells was determined by a liquid scintillation counter. For reference, the mitogen used in the present test is concanavalin A for T-cell or lipopolysaccharide for B-cell.

The mark [7] stands for this setting: 100 µg/kg/day oral 12 days with puromycin aminonucleoside.

On to `C=C1CC[C@H](O)C/C1=C/C=C1\CCC[C@]2(C)[C@@H]([C@H](C)CC[C@@H](O)C(C)(C)O)CC[C@@H]12` [24R,25-(OH)2 -D3], for which, in assay [1] (after hemodialysis), the “Uptake of 3H-TdR in the presence of lectin from kidney beans” value came out at 222480 ± 21253 cpm and the “Uptake of 3H-TdR in the presence of lipopolysaccharide” value stood at 129984 ± 51385 cpm. Besides, in assay [1] (before hemodialysis), the “Uptake of 3H-TdR in the presence of lectin from kidney beans” value is on record as 228906 ± 19081 cpm and the “Uptake of 3H-TdR in the presence of lipopolysaccharide” value is on record as 158950 ± 48245 cpm. Also, the “Calcium level in serum” value in assay [2] (2 h after 100 µg/kg oral) turned out to be 10.6 ± 0.3 mg/dL. For the same molecule, in assay [2] (5 h after 100 µg/kg oral), the “Calcium level in serum” value amounted to 10.5 ± 0.3 mg/dL. In assay [3], the Number of thymocytes entry is “(32 ± 5.5) × 10^7” and the “Weight ratio: thymus/body” value came out at 0.00101 ± 0.00011. Also, the “calcium level in serum before the administration” value in assay [4] is 12.8 mg/dL. This molecule yielded a Blood sugar in assay [5] of 208 ± 42 mg/dL. Besides, in assay [6] (setting [7]), the “Uptake of 3H-TdR in presence of Concanavalin A” value was found to be 3995 ± 412 cpm and the “Uptake of 3H-TdR in presence of Lipopolysaccharide” value came to 3568 ± 372 cpm. Moreover, the “Number of mononucleate (ratio, first group = 1.00)” value in assay [6] (po, 0.1 mg/kg, 288 h) was determined as 0.68 ± 0.17.
